From US10981932B2, “Macrocyclic indole derivatives” (Bayer Aktiengesellschaft, priority 2016, dated 2021)
pIC50: −log10 of the molar value. Structures can show the parent of a compound that is named as a salt.

How the values were obtained:
BCL-XL = biological target: T1, BCL-XL (Homo sapiens, UniProt Q07817); test: Protein-protein interaction assay BCL-XL/Bad BH3 peptide (BCL-XL assay), TR-FRET; type: binding; details: His-BCL-XL / Bad BH3-derived peptide
T1 construct: BCL-XL (amino acids 1-212, C-terminal fused to a hexahistidine (6×His) tag); purchased BPS Bioscience (San Diego, Calif., USA); host or cells: E. coli
Protocol: Protein-Protein Interaction Assay: BCL-XL/Bad BH3 Peptide (BCL-XL Assay)
The dose-dependent inhibition by the compounds described in this invention of the interaction between […] and the BH3 domain of Bad (both human) was determined using a steady state binding competition assay with time-resolved fluorescence energy transfer (TR-FRET) readout. For that purpose BCL-2 (amino acids 1-211, C-terminal fused to a hexahistidine (6×His) tag (SEQ ID NO: 3) and a synthetic Bad BH3-derived peptide of sequence Biotin-PEG2-PEG2-NLWAAQRYGRELRR-NIe-SDEFVDSFKK-amide (SEQ ID NO: 2) served as protein receptor and tracer ligand respectively. The recombinant BCL-2 protein (expressed in E. coli) was purchased from BPS Bioscience (San Diego, Calif., USA). The Bad BH3-derived peptide can be obtained from e.g. Biosyntan (Berlin, Germany).
In the assay 11 different concentrations of each compound (0.1 nM, 0.33 nM, 1.1 nM, 3.8 nM, 13 nM, 44 nM, 0.15 μM, 0.51 μM, 1.7 μM, 5.9 μM and 20 μM) were typically measured as duplicates in the same microtiter plate. For that, 100-fold concentrated DMSO solutions were prepared by serial dilutions (1:3.4) of a 2 mM stock solution in a clear, 384-well microtiter plate (Greiner Bio-One, Frickenhausen, Germany). From there, 50 nl were transferred in a dark test plate (Greiner Bio-One. Frickenhausen, Germany). The assay was initiated by addition of 2 μl of a 2,5-fold concentrated Hs-BCL-XL solution (usually for a 1 nM end concentration in 5 μl reaction volume) in aqueous assay buffer [50 mM Tris/HCl pH 7, 100 mM sodium chloride (NaCl), 50 mM potassium fluoride (KF), 0.005% Tween-20, 2 mM DTT, 0.1% bovine gamma globulin (BGG)] to the compounds in the assay plate. This was followed by a 10-minute incubation step at 22° C. for pre-equilibration of the putative complex between His-BCL-XL and the compounds.
The mixture was incubated in the dark for one hour at 22° C. and then overnight at 4° C. The formation of BCL-XL/Bad complexes was determined by measuring the resonance energy transfer of the anti-His- Eu-cryptate antibody to the streptavidin-XL665 present in the reaction. For that purpose, the fluorescence emission at 620 nm and 665 nm after excitation at 330-350 nm was measured in a TR-FRET measuring instrument, for instance a Rubystar or a Pherastar (both from BMG Lab Technologies, Offenburg, Germany) or a Viewlux (Perkin-Elmer). The ratio of the emission at 665 nm and at 622 nm was used as indicator of the amount of BCL-XL/Bad complexes present.
The resulting data (ratio) were normalized, taking 0% inhibition as the mean value of control measurements (usually 32 data points) where all reagents were included. In this case 50 nl DMSO were used instead of compounds. A 100% inhibition corresponded to the mean value of control measurements (usually 32 data points) where all reagents except BCL-XL were included. IC50 values were determined by regression analysis based on a 4 parameter equation (minimum, maximum, IC50, Hill; Y=Max+(Min−Max)/(1+(X/IC50)^Hill) using the Screener Software (Genedata).

SUDHL5 [1] = test: Induction of caspase-3/7 activity (Caspase-Glo 3/7), SUDHL5; type: cell-based; details: caspase-3/7 induction, SUDHL5 cells, 3 h treatment, median
Procedure, shortened: (§1)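 A 3 h, 37 °C compound incubation precedes the Caspase-Glo 3/7 read. After subtracting medium-only signal, EC50s are fitted against the reference compound's maximal caspase induction.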

SUDHL10 [2] = test: Induction of caspase-3/7 activity (Caspase-Glo 3/7), SUDHL10; type: cell-based; details: caspase-3/7 induction, SUDHL10 cells, 3 h treatment, median
Procedure, shortened: as §1

SUDHL5 [3] = test: Anti-proliferative effect (CellTiter-Glo, 72 h), SUDHL5; type: cell-based; details: SUDHL5 cells, antiproliferation, 72 h incubation, median, read-out: Antiproli SUDHL5 [M] (median)
Procedure, shortened: (§2)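 Endpoint: CellTiter-Glo luminescence, 10 min after reagent addition. Treatment ran 72 h at 37 °C, humidified. Growth was referenced to a separately plated day 0 plate.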

SUDHL10 [4] = test: Anti-proliferative effect (CellTiter-Glo, 72 h), SUDHL10; type: cell-based; details: SUDHL10 cells, antiproliferation, 72 h incubation, median, read-out: Antiproli SUDHL10 [M] (median)
Procedure, shortened: as §2

SUDHL5 [5] = test: Induction of cytotoxicity (CellTiter-Glo, 5 h), SUDHL5
SUDHL10 [6] = test: Induction of cytotoxicity (CellTiter-Glo, 5 h), SUDHL10
[7] = Homo sapiens, SU-DHL-5, 5 h, read-out: Cytotox SUDHL5 [M] (median), SUDHL5 cells, cytotoxicity induction, CellTiter-Glo, 5 h incubation, median
[8] = Homo sapiens, SU-DHL10, 5 h, read-out: Cytotox SUDHL10 [M] (median), SUDHL10 cells, cytotoxicity induction, CellTiter-Glo, 5 h incubation, median
[9] = read-out: Cytotox SUDHL5 [M] (median), SUDHL5 cells, cytotoxicity induction, CellTiter-Glo, 5 h incubation, median
[10] = read-out: Cytotox SUDHL10 [M] (median), SUDHL10 cells, cytotoxicity induction, CellTiter-Glo, 5 h incubation, median

T1 sequence (Q07817 1-212): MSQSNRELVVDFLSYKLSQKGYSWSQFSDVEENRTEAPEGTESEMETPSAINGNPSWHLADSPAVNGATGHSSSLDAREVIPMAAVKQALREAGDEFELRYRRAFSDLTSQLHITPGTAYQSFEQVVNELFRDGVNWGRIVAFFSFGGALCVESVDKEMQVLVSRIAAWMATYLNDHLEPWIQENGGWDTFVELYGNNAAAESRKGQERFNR

SMILES | pIC50 (BCL-XL) | EC50 (SUDHL5 [1]; Homo sapiens, SU-DHL-5, 3 h) [µM] | EC50 (SUDHL10 [2]; Homo sapiens, SU-DHL10, 3 h) [µM] | IC50 (SUDHL5 [3]; Homo sapiens, SU-DHL-5, 72 h) [M] | IC50 (SUDHL10 [4]; Homo sapiens, SU-DHL10, 72 h) [M] | EC50 (SUDHL5 [1]) [µM] | EC50 (SUDHL10 [2]) [µM] | IC50 (SUDHL5 [3]) [M] | IC50 (SUDHL10 [4]) [M] | IC50 (SUDHL5 [5]; [7]) [M] | IC50 (SUDHL10 [6]; [8]) [M] | IC50 (SUDHL5 [5]; [9]) [M] | IC50 (SUDHL10 [6]; [10]) [M]
CCc1c2c(nn1C)CN(C)CCCn1c(C(=O)O)c(CCCOc3cccc4ccccc34)c3ccc(C)c-2c31 (racemic) [Example 144, (rac)-11-ethyl-7,10,12-trimethyl-1-[3-(1-naphthyloxy)propyl]-4,5,6,7,8,10-hexahydropyrazolo[3′,4′:7,8][1,5]diazecino[9,10,1-hi]indole-2-carboxylic Acid] | < 4.70 | 2.85 | 3.91 | 1.33e-06 | 5.89e-06 |  |  |  |  | 2.55e-06 | 5.02e-06 |  | 
CC(C)OCc1nn(C)c2c1-c1cccc3c(CCCOc4cccc5ccccc45)c(C(=O)O)n(c13)CCCCN(C)C2 (single isomer, unassigned) [Example 1-74, 1,14-dimethyl-7-[3-(naphthalen-1-yloxy)propyl]-3-[(propan-2-yloxy)methyl]-10,11,12,13,14,15-hexahydro-1H-pyrazolo[3′,4′:8,9][1,6]diazacycloundecino[10,11,1-hi]indole-8-carboxylic Acid] | < 4.70 |  | 20.3 | 9.62e-06 | 1.17e-05 | 8.87 |  |  |  |  |  | 9.82e-06 | 1.42e-05
CCn1nc2c(c1C1CC1)-c1cccc3c(CCCOc4cccc5ccccc45)c(C(=O)O)n(c13)CCCCOC2 (single isomer, unassigned; enantiomer 1) [Example 082, 3-cyclopropyl-2-ethyl-7-[3-(naphthalen-1-yloxy)propyl]-2,10,11,12,13,15-hexahydropyrazolo[4′,3′:9,10][1,6]oxazacycloundecino[8,7,6-hi]indole-8-carboxylic acid-N-ethylethanamine Salt (Enantiomer 1)] | < 4.70 |  | 30.5 | 1.81e-05 | 7.79e-06 | 8.69 |  |  |  |  | > 3.3e-05 | 8.19e-06 | 
Cc1nn(C)c2c1-c1cccc3c(CCCOc4cccc5ccccc45)c(C(=O)O)n(c13)CCCCOCC2 (racemic) [Example 017, (rac)-1,3-dimethyl-7-[3-(1-naphthyloxy)propyl]-10,11,12,13,15,16-hexahydro-1H-pyrazolo[4′,3′:9,10][1,6]oxazacyclododecino[8,7,6-hi]indole-8-carboxylic Acid] | < 4.70 | 14.7 | > 33 | 6.09e-06 | 2.17e-05 |  | 31.9 |  |  | 1.36e-05 | > 3.3e-05 |  | 
COCc1nn(C)c2c1-c1cccc3c(CCCOc4cccc5ccccc45)c(C(=O)O)n(c13)CCCN(C)C2 (single isomer, unassigned; enantiomer 2) [Example 1-104, 11-(methoxymethyl)-7,9-dimethyl-1-[3-(1-naphthyloxy)propyl]-4,5,6,7,8,9-hexahydropyrazolo[3′,4′:7,8][1,5]diazecino[9,10,1-hi]indole-2-carboxylic Acid (Enantiomer 2)] | < 4.70 |  |  |  |  | 4.96 | 8.64 | 3.62e-06 |  |  |  | 7.21e-06 | 1.78e-05

Now from value to molecule, other results behind:

pIC50 (BCL-XL) | EC50 (SUDHL5 [1]; Homo sapiens, SU-DHL-5, 3 h) [µM] | EC50 (SUDHL10 [2]; Homo sapiens, SU-DHL10, 3 h) [µM] | IC50 (SUDHL5 [3]; Homo sapiens, SU-DHL-5, 72 h) [M] | IC50 (SUDHL10 [4]; Homo sapiens, SU-DHL10, 72 h) [M] | EC50 (SUDHL5 [1]) [µM] | EC50 (SUDHL10 [2]) [µM] | IC50 (SUDHL5 [3]) [M] | IC50 (SUDHL10 [4]) [M] | SMILES | IC50 (SUDHL5 [5]; [7]) [M] | IC50 (SUDHL10 [6]; [8]) [M] | IC50 (SUDHL5 [5]; [9]) [M] | IC50 (SUDHL10 [6]; [10]) [M]
< 4.70 |  |  |  |  | 0.486 | 0.755 | 1.26e-06 | 1.35e-06 | Cn1nc(COc2ccc(N3CCN(S(C)(=O)=O)CC3)cc2)c2c1COCCCCn1c(C(=O)O)c(CCCOc3cccc4ccccc34)c3cccc-2c31 (single isomer, unassigned; enantiomer 2) [Example 1-10, 1-methyl-3-({4-[4-(methylsulfonyl)piperazin-1-yl]phenoxy}methyl)-7-[3-(naphthalen-1-yloxy)propyl]-1,10,11,12,13,15-hexahydropyrazolo[4′,3′:9,10][1,6]oxazacycloundecino[8,7,6-hi]indole-8-carboxylic acid (enantiomer 2)] |  |  | 4.33e-07 | 4.74e-07
< 4.70 | 1.7 | 5.12 | 7.96e-07 | 4.09e-06 |  |  |  |  | CCc1c2c(nn1C)COCCCCn1c(C(=O)O)c(CCCOc3cccc4ccccc34)c3ccc(C)c-2c31 (racemic) [Example 153, (rac)-3-Ethyl-2,4-dimethyl-7-[3-(1-naphthyloxy)propyl]-2,10,11,12,13,15-hexahydropyrazolo[4′,3′:9,10][1,6]oxazacycloundecino[8,7,6-hi]indole-8-carboxylic Acid] | 1.65e-06 | 5.1e-06 |  | 
< 4.70 |  |  |  |  | 2.44 | 3.84 | 2.54e-06 | 3e-06 | Cc1c2c(nn1C)COCCCCn1c(C(=O)O)c(CCCOc3cccc4ccccc34)c3cccc-2c31 (single isomer, unassigned; enantiomer 1) [Example 1-37, (+)-2,3-dimethyl-7-[3-(naphthalen-1-yloxy)propyl]-2,10,11,12,13,15-hexahydropyrazolo[4′,3′:9,10][1,6]oxazacycloundecino[8,7,6-hi]indole-8-carboxylic Acid (Enantiomer 1)] |  |  | 1.92e-06 | 8.41e-06
< 4.70 |  |  |  | 6.99e-06 |  |  |  |  | CC(C)c1c2c(nn1C)CN(C)CCCn1c(C(=O)O)c(CCCOc3cccc4ccccc34)c3cccc-2c31 (racemic) [Example 113, (rac)-7,10-dimethyl-1-[3-(naphthalen-1-yloxy)propyl]-11-(propan-2-yl)-4,5,6,7,8,10-hexahydropyrazolo[3′,4′:7,8][1,5]diazecino[9,10,1-hi]indole-2-carboxylic Acid] | 6.84e-06 | 7.9e-06 |  | 
< 4.70 |  | 18.2 | 9.88e-06 |  | 13.1 |  |  |  | Cc1nn(C)c2c1-c1cccc3c(CCCOc4cccc5cc(Cl)ccc45)c(C(=O)O)n(c13)CCCCOC2 (single isomer, unassigned; enantiomer 1) [Example 041, 7-{3-[(6-chloronaphthalen-1-yl)oxy]propyl}-1,3-dimethyl-1,10,11,12,13,15-hexahydropyrazolo[4′,3′:9,10][1,6]oxazacycloundecino[8,7,6-hi]indole-8-carboxylic acid-N-ethylethanamine Salt (Enantiomer 1)] |  |  | 1.02e-05 | 1.46e-05
